Patent EP4458825A1, “SALT OF AMINOPYRIMIDINE COMPOUND AND USE THEREOF” (Sunshine Lake Pharma Co., Ltd., priority 2021, dated 2023)
Structures can show the parent of a compound that is named as a salt.

Tests used:
[1] = Pharmacokinetics test in SD rats (oral gavage, PEG400 suspension); type: in vivo; conditions: 200 mg/kg
Experimental: The salt of the compound shown in formula (I) and the free base crystal form 2 of the compound shown in formula (I) of the present invention were respectively prepared into a suspension using PEG400, and the male SD rats were given 200 mg/kg test samples orally by gavage, and 3 animals in each group were given. Blood was collected at time points 0.25, 0.5, 1.0, 2.0, 5.0, 7.0 and 24 h after administration. Standard curve was plotted based on concentrations of the samples in a suitable range, the concentration of the test sample in the plasma sample was measured and quantified by AB SCIEX API4000-type LC-MS / MS at MRM mode. Pharmacokinetic parameters were calculated according to drug concentration -time curve using a noncompartmental by WinNonLin 6.3 software. Table 2 Pharmacokinetic experimental results data of salt and free base crystal form 2 of the present invention in male SD rats

[2] = Pharmacokinetics test in Beagle dogs (oral capsules); type: in vivo; conditions: for Tmax / AUClast / Cmax: 10 mg/kg, male Beagle dogs, oral capsules
Experimental: The salt of the compound shown in formula (I) and the free base crystal form 2 of the compound shown in formula (I) of the present invention were respectively filled with capsules for oral administration.
Male Beagle dogs of 8-12 kg were divided into 2 groups, 3 dogs in each group, and capsules containing test samples were orally administered at a dose of 10 mg/kg, and blood was collected at time points of 0.25, 0.5, 1.0, 2.0, 4.0, 6.0, 8.0 and 24 h. Standard curve was plotted based on concentrations of the samples in a suitable range, the concentration of the test sample in the plasma sample was measured and quantified by AB SCIEX API4000-type LC-MS / MS at MRM mode. Pharmacokinetic parameters were calculated according to drug concentration -time curve using a noncompartmental method by WinNonLin 6.3 software. Table 1 Pharmacokinetic experimental results data of salt and free base crystal form 2 of the present invention in Beagle dogs

Long-term stability test = type: physicochemical; conditions: for Purity: long-term, 5 °C ± 3 °C, packaged, HPLC
Experimental: Long-term stability test: The samples were inspected under the conditions of single-layer PE inner packaging, aluminum foil bag outer packaging, built-in KD-20 oxygen absorber, and vacuum nitrogen filling and heat sealing packaging, low temperature 5 °C ± 3 °C long-term test conditions, and the sample color was observed. The purity of the sample was determined by HPLC.

[3] = Stability test: high-humidity test; type: physicochemical; conditions: for Purity: HPLC
Experimental: (§1) High-humidity test: The salt of the compound shown in formula (I) of the present invention was taken an appropriate amount and put into a flat weighing flask, divided into ≤ 3 mm thick thin layer. The samples were placed at 25 °C, RH 90% ± 5% and 25 °C, RH 75% ± 5% for 30 days. The samples were sampled at day 5, day 10 and day 30, and the sample color was observed. The purity of the sample was determined by HPLC.

[4] = Stability test: high-temperature test; type: physicochemical; conditions: for Purity: HPLC
Experimental: as §1, with “High-temperature” for “High-humidity”, “60 °C” for “25 °C, RH 90% ± 5%”, “40 °C” for “25 °C, RH 75% ± 5%”

[5] = High humidity RH75%, 25 °C, 5 days
[6] = High humidity RH75%, 25 °C, 10 days
[7] = High humidity RH75%, 25 °C, 30 days
[8] = High humidity RH90%, 25 °C, 5 days
[9] = High humidity RH90%, 25 °C, 10 days
[10] = High humidity RH90%, 25 °C, 30 days
[11] = High temperature (40°C), 5 days
[12] = High temperature (40°C), 10 days
[13] = High temperature (40°C), 30 days
[14] = High temperature (60°C), 5 days
[15] = High temperature (60°C), 10 days
[16] = High temperature (60°C), 30 days
[17] = in Beagle dogs, compared with free base crystal form 2

Cc1noc(-c2c(N)ncnc2N[C@@H](C)c2nc3cccc(C#CCO)c3c(=O)n2-c2ccccc2)n1 [(S)-2-(1-((6-amino-5-(3-methyl-1,2,4-oxadiazol-5-yl)pyrimidin-4-yl)amino)ethyl)-5-(3-hydroxyprop-1-yn-1-yl)-3-phenylquinazolin-4(3H)-one]
AUC(0-t) ([1]; male, SD, rat, plasma, po): 55200 ± 8700 ng·h/mL
Tmax ([1]; male, SD, rat, plasma, po, read-out: Tmax): 1.33 ± 0.58 h
Tmax ([2]; male, Beagle, dog, plasma, po, read-out: Tmax): 3 ± 1.7 h

Cc1noc(-c2c(N)ncnc2N[C@@H](C)c2nc3cccc(C#CCO)c3c(=O)n2-c2ccccc2)n1 [Free base crystal form 2, (S)-2-(1-((6-amino-5-(3-methyl-1,2,4-oxadiazol-5-yl)pyrimidin-4-yl)amino)ethyl)-5-(3-hydroxyprop-1-yn-1-yl)-3-phenylquinazolin-4(3H)-one]
AUClast ([1]; male SD rats): 39800 ± 7600 ng·h/mL
Cmax ([1]; male SD rats): 5800 ± 850 ng/mL
Tmax ([1]; male SD rats): 1.67 ± 0.58 h
AUClast [2]: 26700 ± 6300 ng·h/mL
Cmax [2]: 2480 ± 600 ng/mL
Tmax [2]: 2.36 ± 1.2 h

Cc1noc(-c2c(N)ncnc2N[C@@H](C)c2nc3cccc(C#CCO)c3c(=O)n2-c2ccccc2)n1 [crystal form A of Sulfate salt, (S)-2-(1-((6-amino-5-(3-methyl-1,2,4-oxadiazol-5-yl)pyrimidin-4-yl)amino)ethyl)-5-(3-hydroxyprop-1-yn-1-yl)-3-phenylquinazolin-4(3H)-one]
AUClast ([1]; male SD rats): 35300 ± 8920 ng·h/mL
Cmax ([1]; male SD rats): 3310 ± 993 ng/mL
Tmax ([1]; male SD rats): 1.17 ± 0.764 h

Cc1noc(-c2c(N)ncnc2N[C@@H](C)c2nc3cccc(C#CCO)c3c(=O)n2-c2ccccc2)n1 [crystal form A of bisulfate salt, (S)-2-(1-((6-amino-5-(3-methyl-1,2,4-oxadiazol-5-yl)pyrimidin-4-yl)amino)ethyl)-5-(3-hydroxyprop-1-yn-1-yl)-3-phenylquinazolin-4(3H)-one]
AUClast ([1]; male SD rats): 40600 ± 183 ng·h/mL
Cmax ([1]; male SD rats): 4080 ± 375 ng/mL
Tmax ([1]; male SD rats): 1.50 ± 0.866 h

Cc1noc(-c2c(N)ncnc2N[C@@H](C)c2nc3cccc(C#CCO)c3c(=O)n2-c2ccccc2)n1 [crystal form A of p-toluenesulfonate salt] [(S)-2-(1-((6-amino-5-(3-methyl-1,2,4-oxadiazol-5-yl)pyrimidin-4-yl)amino)ethyl)-5-(3-hydroxyprop-1-yn-1-yl)-3-phenylquinazolin-4(3H)-one]
appearance and purity (Long-term stability test; condition of long-term stability test): no obvious change
Purity (Long-term stability test; 0 day): 99.27%
Purity (Long-term stability test; 3 months): 99.26%
Purity (Long-term stability test; 6 months): 99.23%
Purity (Long-term stability test; 9 months): 99.26%
Purity (Long-term stability test; 12 months): 99.27%
Purity (Long-term stability test; 18 months): 99.24%
Purity (Long-term stability test; 24 months): 99.24%
Cmax ([1]; male SD rats): 6810 ± 1700 ng/mL
Outward ([3]; 0 day): Light yellow powder
Purity ([3]; 0 day): 99.78%
Outward [3, 5]: Light yellow powder
Purity [3, 5]: 99.69%
Outward [3, 6]: Light yellow powder
Purity [3, 6]: 99.69%
Outward [3, 7]: Light yellow powder
Purity [3, 7]: 99.65%
Outward [3, 8]: Light yellow powder
Purity [3, 8]: 99.75%
Outward [3, 9]: Light yellow powder
Purity [3, 9]: 99.78%
Outward [3, 10]: Light yellow powder
Purity [3, 10]: 99.81%
appearance and purity ([3]; conditions of high humidity): not significantly changed
Outward ([4]; 0 day): Light yellow powder
Purity ([4]; 0 day): 99.78%
Outward [4, 11]: Light yellow powder
Purity [4, 11]: 99.74%
Outward [4, 12]: Light yellow powder
Purity [4, 12]: 99.78%
Outward [4, 13]: Light yellow powder
Purity [4, 13]: 99.69%
Outward [4, 14]: Light yellow powder
Purity [4, 14]: 99.61%
Outward [4, 15]: Light yellow powder
Purity [4, 15]: 99.44%
Outward [4, 16]: Light yellow powder
Purity [4, 16]: 99.1%
appearance and purity ([4]; conditions of high temperature): not significantly changed
blood concentration [2, 17]: higher
exposure [2, 17]: higher
AUClast [2]: 84200 ± 20000 ng·h/mL
Cmax [2]: 8400 ± 1800 ng/mL

Cc1noc(-c2c(N)ncnc2N[C@@H](C)c2nc3cccc(C#CCO)c3c(=O)n2-c2ccccc2)n1 [crystal form A of phosphate salt, (S)-2-(1-((6-amino-5-(3-methyl-1,2,4-oxadiazol-5-yl)pyrimidin-4-yl)amino)ethyl)-5-(3-hydroxyprop-1-yn-1-yl)-3-phenylquinazolin-4(3H)-one]
AUClast ([1]; male SD rats): 37800 ± 6550 ng·h/mL
Cmax ([1]; male SD rats): 3950 ± 1500 ng/mL
Tmax ([1]; male SD rats): 1.50 ± 0.866 h
